The values that follow come from PMC7228129, “Evaluation of Developmental Toxicity, Developmental Neurotoxicity, and Tissue Dose in Zebrafish Exposed to GenX and Other PFAS” (Environmental Health Perspectives, 2020).

“Also recorded” adds a separate entry of the source. Read-outs that look alike come from different tables or passages of the source.

Data set [1] relates to zebrafish. Briefly: Developmental toxicity (DevTox) assay. Format: in vivo, Danio rerio. To be noted: for Developmental toxicity outcome / EC50: scored 6 dpf; for DevTox assay phenotype: Table 5 summary, this study (some rows also list literature); for EC50: Hill fit. The protocol:
At 0 dpf, zebrafish embryos were bleached as previously described ([Tal et al. 2017]). A single embryo at the dome-to-epiboly stages ([Kimmel et al. 1995]) was placed into each individual well of a 96-well plate containing a 40-μm nylon mesh filter (Millipore, Catalog No. MANMN4010) with 400μL of 10% Hanks’ balanced salt solution (HBSS) per well. Filter inserts containing zebrafish embryos were transferred to 96-well culture trays (Millipore, Catalog No. MAMCS9610) containing 250μL of 10% HBSS ([Westerfield 2007]) and 1μL of 250× working solutions per well. A final concentration of 0.4% DMSO was used for all exposure groups and as a vehicle control. In the case of GenX Free Acid in Study 2 (Figure 1), DI water was used as a vehicle control. Daily, from 1–5 dpf, plates underwent 100% media changes to refresh chemical dosing solutions by blotting (Brandel; Catalog No. FPXLR-196) and transferring mesh inserts containing zebrafish to new bottom plates (Millipore; Catalog No. MAMCS9610). To minimize evaporation, plates were sealed (Biorad; Catalog No. MSA5001) and wrapped with parafilm. Plates were maintained on a 14 h:10 h light cycle at 26.0°C and scored daily for death, malformations, hatching, and swim bladder inflation. At 6 dpf, plates were evaluated by two independent observers and DevTox or DNT assays were performed or media and tissue were collected for analytical chemistry analyses as described below.
In Study 1 (Figure 1), zebrafish were exposed, as described in the “Chemical Exposures” section, to 0.04, 0.1, 0.4, 1.1, 3.1, 9.3, 27.2, or 80.0μM PFOS, PFOA, PFHxS, PFHxA, or ADONA, or 0.4% DMSO. Six 96-well plates were tested with a single chemical concentration included on each microtiter plate. Subsequently, as part of Study 1, zebrafish were exposed to 0.04, 0.1, 0.4, 1.1, 3.1, 9.3, 27.2, or 80.0μM PFESA1, or 0.4% DMSO. In Study 2, GenX Free Acid diluted in DI water was tested by exposing zebrafish to 0.04, 0.1, 0.4, 1.1, 3.1, 9.3, 27.2, or 80.0μM of the compound or DI water. […] Zebrafish were exposed to 1.7, 3.1, 5.5, 9.8, 17.6, 31.4, 56.0, or 100.0μM of PFBS, PFHxS, PFHpS, or PFOS or 0.4% DMSO. Subsequently, zebrafish were exposed to 1.7, 3.1, 5.5, 9.8, 17.6, 31.4, 56.0, or 100.0μM PFPeS, or 0.4% DMSO. Chlorpyrifos was used as positive control for malformations ( 8.0μM ) and lethality ( 80.0μM ) ([Padilla et al. 2012]; [Tal et al. 2017]). To conduct DevTox assay assessments, at 6 dpf, two independent observers evaluated zebrafish larvae for survival, hatching, swim bladder inflation, and malformations, including curved body axis, shortened trunk, pericardial edema, yolk sac edema, necrotic yolk sac, pectoral fin abnormalities and head/jaw abnormalities. Directly after assessments, data were reviewed and, in the case of discrepancies, consensus calls were reached. Toxicity values were assigned to descriptive data (i.e., normal=0 , abnormal=20 , severely abnormal=50 , and dead=100 ), modified from a previously described approach ([Padilla et al. 2012]). Briefly, animals with a single malformation were scored as abnormal, whereas animals with ≥2 malformations were scored as severely abnormal.
For the DevTox assay, a Kruskal-Wallace nonparametric one-way analysis of variance (ANOVA) with a Dunn’s multiple comparison test was used to detect differences between exposure groups (* p<0.05 , ** p<0.0001 ) and LOEC values were determined. If a test for linear trend was significant ( p<0.05 ), with developmental toxicity observed at the highest concentration tested, nonlinear regression was performed with a Hill slope curve fitting for half maximal effective concentration ( EC50 ) value determinations.

For data set [2], the system named is zebrafish. To be noted: Table 5 summary, cited from earlier work.
Data set [3] relates to zebrafish. Conditions: cited from earlier work; for EC50: previously published zebrafish DevTox assay data, read-out: EC50 for developmental toxicity.
Data set [4] can be described thus: GenX Free Acid stock degradation / stability in DMSO. To be noted: DMSO as diluent/vehicle. The format is physicochemical.
Where [5] appears, read: Study 1, 0.04–80.0 μM daily 0–5 dpf, 0.4% DMSO.
Where [6] appears, read: Danio rerio, Study 1, 0.04–80.0 μM daily 0–5 dpf, 0.4% DMSO.
Setting [7] is: Danio rerio, Study 3, 1.7–100.0 μM daily 0–5 dpf, 0.4% DMSO.

On to `O=C(O)C(F)(F)C(F)OC(F)(F)C(F)(F)C(F)(F)OC(F)(F)F` (centres unmarked) [ADONA, 4,8-Dioxa-3H-perfluorononanoate], for which the “Developmental toxicity outcome” value in the data set with zebrafish [1] (setting [5]) is recorded as “did not cause concentration-dependent effects on survival or development; also recorded: failed to provoke developmental toxicity or developmental neurotoxicity; also recorded: negative”. The DevTox assay phenotype result with zebrafish [1] was “Negative^a”.
Broadly, the EC50 is the concentration giving half of the maximal effect. With `O=S(=O)(O)C(F)(F)C(F)(F)C(F)(F)C(F)(F)C(F)(F)C(F)(F)C(F)(F)C(F)(F)F` [PFOS, Perfluorooctanesulfonic acid], in the data set on zebrafish [2] (ref Ulhaq et al. 2013b), the DNT assay phenotype result is “Hypoactivity”. The EC50 in the data set on zebrafish [1] (setting [6]) was 7.5 µM; in the data set on zebrafish [1] (setting [7]), 28.2 µM; in the data set with zebrafish [1] (setting [5]) it was 7.54 µM; in the data set with zebrafish [1] (Study 3, 1.7–100.0 μM daily 0–5 dpf, 0.4% DMSO), 28.2 µM; in the data set with zebrafish [3] (ref Padilla et al. 2012), 42.3 µM; with zebrafish [3] (ref Truong et al. 2014) it was 3.5 µM. Moreover, in the data set with zebrafish [1] (setting [5]), the “Developmental toxicity outcome” value was “failed swim bladder inflation and ventroflexion of the tail”. Moreover, the DevTox assay phenotype result with zebrafish [1] is reported as “Positive”.
For `O=C(O)C(F)(F)C(F)(F)C(F)(F)C(F)(F)C(F)(F)C(F)(F)C(F)(F)F` [PFOA, Perfluoro-n-octanoic acid], the DNT assay phenotype result in the data set with zebrafish [2] (ref Ulhaq et al. 2013b) was “Hyperactivity”. Moreover, the “Developmental toxicity outcome” value with zebrafish [1] (setting [5]) is given as “did not cause concentration-dependent effects on survival or development; also recorded: negative”. Further, the DevTox assay phenotype entry is “Negative” with zebrafish [1] and “Positive” with zebrafish [3] (Table 5 summary, zebrafish, ref Hagenaars et al. 2011, Jantzen et al. 2016, Ulhaq et al. 2013a).
For the compound `O=S(=O)(O)C(F)(F)C(F)(F)OC(F)(C(F)(F)F)C(F)(F)OC(F)=C(F)F` (centres unmarked) [PFESA1, Perfluoro-3,6-dioxa-4-methyl-7-octene-1-sulfonic acid], in the data set on zebrafish [1] (setting [5]), the “Developmental toxicity outcome” value is reported as “did not cause concentration-dependent effects on survival or development; also recorded: failed to provoke developmental toxicity or developmental neurotoxicity; also recorded: negative”. For the same compound, in the data set with zebrafish [1], the DevTox assay phenotype result was “Negative^a”.
With `O=S(=O)(O)C(F)(F)C(F)(F)C(F)(F)C(F)(F)C(F)(F)C(F)(F)F` [PFHxS, Perfluorohexanesulfonic acid], the DNT assay phenotype entry in the data set on zebrafish [2] (ref Khezri et al. 2017) is given as “Negative”. The EC50 was 92.7 µM in the data set on zebrafish [1] (setting [6]), 228 µM in the data set on zebrafish [1] (setting [7]), 116 µM in the data set with zebrafish [3] (ref Padilla et al. 2012) and 115 µM with zebrafish [3] (ref Truong et al. 2014). Also, the “Developmental toxicity outcome” value with zebrafish [1] (setting [5]) is recorded as “same morphological phenotypes as PFOS”. In addition, the DevTox assay phenotype result in the data set on zebrafish [1] is “Positive”.
As to `O=C(O)C(F)(OC(F)(F)C(F)(F)C(F)(F)F)C(F)(F)F` (centres unmarked) [GenX Free Acid, Perfluoro-2-propoxypropanoic acid], the “Stability in DMSO” value in data set [4] is recorded as “unstable in DMSO; also recorded: not stable in DMSO”. Further, the “Developmental toxicity outcome” value in the data set on zebrafish [1] (Study 2, 0.04–80.0 μM in DI water daily 0–5 dpf) is on record as “negative; also recorded: failed to provoke developmental toxicity or developmental neurotoxicity”. Moreover, the DevTox assay phenotype entry with zebrafish [1] is “Negative^a”.
As to `O=C(O)C(F)(F)C(F)(F)C(F)(F)C(F)(F)C(F)(F)F` [PFHxA, Perfluorohexanoic acid], the “Developmental toxicity outcome” value in the data set on zebrafish [1] (setting [5]) is “did not cause concentration-dependent effects on survival or development; also recorded: no observed developmental toxicity identified at the highest concentration tested”. The DevTox assay phenotype entry in the data set with zebrafish [1] is reported as “Negative”.
